Experimental data published in PMC5011342, “A high throughput drug screening assay to identify compounds that promote oligodendrocyte differentiation using acutely dissociated and purified oligodendrocyte precursor cells” (BMC Research Notes, 2016).
Read-outs that look alike come from different tables or passages of the source.

Legend:
expanded OPCs = test: cells; conditions: for viability at 0.1 µM / viability at 1 µM / viability at 10 µM: Rattus norvegicus, 72 h; for 0.1 µM (% DMSO) / 1 µM (% DMSO) / 10 µM (% DMSO): alamarBlue viability of expanded OPCs, relative to DMSO control; for 0.1 µM (% DMSO): compound at 0.1 µM; for 1 µM (% DMSO): compound at 1 µM; for 10 µM (% DMSO): compound at 10 µM
In short: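 Toxicity screen: compounds added at 0.1, 1 and 10 µM to PDGF-AA-expanded OPCs in 96-well plates, 3-day incubation at 37 °C, 10% CO2, then alamarBlue 1:10 for 4 h with fluorescence readout. Results set screening doses of 10/2, 2/0.4 or 0.4/0.08 µM.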

[1] = system: acutely dissociated and purified rat OPCs; test: Acute OL differentiation assay (MBP expression/cell, immunofluorescent image quantification); format: cell-based; conditions: for EC50: average EC50 for induction of OL differentiation from independent biological replicates, eight concentrations; for hit in OL differentiation assay, MRF-TMC: ● = confirmed hit in this paper's assay
In short: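 This acute differentiation assay used purified rat OPCs from postnatal day 6–7 pups, seeded into PDL/laminin-coated 96-well plates in differentiation medium lacking PDGF and FGF. Compounds were applied in quadruplicate after a 1–2 h preincubation at 37 °C, 10 % CO2, with 0.1 % DMSO negative and 40 ng/ml T3 positive controls in eight wells. After fixation on DIV4, anti-MBP immunofluorescence images yielded MBP expression/cell.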

[2] = read-out: 0.1 µM (% DMSO), alamarBlue viability of expanded OPCs, compound at 0.1 µM, sheet All Tox data
[3] = read-out: 1 µM (% DMSO), alamarBlue viability of expanded OPCs, compound at 1 µM, sheet All Tox data
[4] = read-out: 10 µM (% DMSO), alamarBlue viability of expanded OPCs, compound at 10 µM, sheet All Tox data
[5] = Rattus norvegicus, 0.4 uM test compound, relative to quetiapine, sheet "All OLga data", read-out: OL differentiation, 0.4 uM (% Quet)
[6] = Rattus norvegicus, 2 uM test compound, relative to quetiapine, sheet "All OLga data", read-out: OL differentiation, 2 uM (% Quet)
[7] = read-out: 0.1 µM (% DMSO), alamarBlue viability, NCC library compound at 0.1 µM, sheet "All Tox data"
[8] = read-out: 1 µM (% DMSO), alamarBlue viability, NCC library compound at 1 µM, sheet "All Tox data"
[9] = read-out: 10 µM (% DMSO), alamarBlue viability, NCC library compound at 10 µM, sheet "All Tox data"
[10] = Rattus norvegicus, test compound at 0.4 uM, NCC library screen, sheet "All OLga data", relative to quetiapine, read-out: 0.4 uM (% Quet)
[11] = Rattus norvegicus, test compound at 2 uM, NCC library screen, sheet "All OLga data", relative to quetiapine, read-out: 2 uM (% Quet)
[12] = Rattus norvegicus, 10 uM test compound, relative to quetiapine, sheet "All OLga data", read-out: OL differentiation, 10 uM (% Quet)
[13] = Rattus norvegicus, test compound at 0.4 uM, MBP expression relative to quetiapine, NCC library screen, sheet "All OLga data", read-out: 0.4 uM (% Quet)
[14] = Rattus norvegicus, test compound at 10 uM, NCC library screen, sheet "All OLga data", relative to quetiapine, read-out: 10 uM (% Quet)
[15] = Rattus norvegicus, test compound at 2 uM, MBP expression relative to quetiapine, NCC library screen, sheet "All OLga data", read-out: 2 uM (% Quet)

CNCC[C@@H](Oc1ccccc1C)c1ccccc1 [Atomoxetine]
viability at 0.1 µM (expanded OPCs; [2]): 87.4%
viability at 1 µM (expanded OPCs; [3]): 74.9%
viability at 10 µM (expanded OPCs; [4]): 33.8%
activation at 0.4 µM [1, 5]: -17.2%
activation at 2 µM [1, 6]: -20.9%

CN(C)CCOc1ccc(/C(=C(/CCCl)c2ccccc2)c2ccccc2)cc1 [Toremifene, reference compound]
viability at 0.1 µM (expanded OPCs; [7]): 174%
viability at 1 µM (expanded OPCs; [8]): 57.8%
viability at 10 µM (expanded OPCs; [9]): 9.9%
activation at 0.4 µM [1, 10]: 74.9%
activation at 2 µM [1, 11]: -169%
EC50 ([1]; Rattus norvegicus): 0.1 µM
hit in OL differentiation assay, MRF-TMC [1]: ●

COc1nc(C)nc(Cl)c1N=C1NCCN1 [Moxonidine]
viability at 0.1 µM (expanded OPCs; [2]): 85.4%
viability at 1 µM (expanded OPCs; [3]): 88.5%
viability at 10 µM (expanded OPCs; [4]): 98.4%
activation at 2 µM [1, 6]: -1.2%
activation at 10 µM [1, 12]: -26.2%

COc1ccc2c(c1)c(CC(=O)O)c(C)n2C(=O)c1ccc(Cl)cc1 [Indomethacin]
viability at 0.1 µM (expanded OPCs; [2]): 81.3%
viability at 1 µM (expanded OPCs; [3]): 85.4%
viability at 10 µM (expanded OPCs; [4]): 87.1%
activation at 2 µM [1, 6]: -10.2%
activation at 10 µM [1, 12]: 2.6%

CC[C@H]1OC(=O)[C@H](C)[C@@H](O[C@H]2C[C@@](C)(OC)[C@@H](O)[C@H](C)O2)[C@H](C)[C@@H](O[C@@H]2O[C@H](C)C[C@H](N(C)C)[C@H]2O)[C@](C)(O)C[C@@H](C)CN(C)[C@H](C)[C@@H](O)[C@]1(C)O [Azithromycin]
0.1 µM (% DMSO) (expanded OPCs): 76.1 % DMSO
1 µM (% DMSO) (expanded OPCs): 40.6 % DMSO
10 µM (% DMSO) (expanded OPCs): 25.1 % DMSO
activation at 0.08 µM ([1]; Rattus norvegicus, test compound at 0.08 uM, MBP expression relative to quetiapine, NCC library screen, sheet "All OLga data", read-out: 0.08 uM (% Quet)): 8.2%
activation at 0.4 µM [1, 13]: -7.2%

Oc1ccc(/C=C/c2cc(O)cc(O)c2)cc1 [Resveratrol]
viability at 0.1 µM (expanded OPCs; [7]): 83.2%
viability at 1 µM (expanded OPCs; [8]): 87.6%
viability at 10 µM (expanded OPCs; [9]): 76.7%
activation at 2 µM [1, 11]: -34.1%
activation at 10 µM [1, 14]: -128%

C[C@H](CS)C(=O)N1CCC[C@H]1C(=O)O [Captopril]
viability at 0.1 µM (expanded OPCs; [7]): 90.7%
viability at 1 µM (expanded OPCs; [8]): 93.2%
viability at 10 µM (expanded OPCs; [9]): 99.1%
activation at 2 µM [1, 11]: 8%
activation at 10 µM [1, 14]: 8.4%

CC(=O)Nc1ccc(CC(=O)O)cc1 [Actarit]
viability at 0.1 µM (expanded OPCs; [2]): 96.4%
viability at 1 µM (expanded OPCs; [3]): 104%
viability at 10 µM (expanded OPCs; [4]): 102%
activation at 2 µM [1, 6]: 4.4%
activation at 10 µM [1, 12]: -11.3%

Cn1c(NCCN(CCO)CCCc2ccc([N+](=O)[O-])cc2)cc(=O)n(C)c1=O [Nifekalant]
viability at 0.1 µM (expanded OPCs; [2]): 94.4%
viability at 1 µM (expanded OPCs; [3]): 97.6%
viability at 10 µM (expanded OPCs; [4]): 109%
activation at 2 µM [1, 6]: -9.4%
activation at 10 µM [1, 12]: 6%

O.O.O=C1N=C([O-])CN1/N=C/c1ccc(-c2ccc([N+](=O)[O-])cc2)o1.[Na+] [Dantrolene sodium salt dihydrate]
0.1 µM (% DMSO) (expanded OPCs): 93.5 % DMSO
1 µM (% DMSO) (expanded OPCs): 100.3 % DMSO
10 µM (% DMSO) (expanded OPCs): 91.7 % DMSO
2 uM (% Quet) ([1]; test compound at 2 uM, MBP expression relative to quetiapine, NCC library screen, sheet "All OLga data"): -16.0 % Quet
10 uM (% Quet) ([1]; test compound at 10 uM, MBP expression relative to quetiapine, NCC library screen, sheet "All OLga data"): -55.0 % Quet

CC(O)(CS(=O)(=O)c1ccc(F)cc1)C(=O)Nc1ccc(C#N)c(C(F)(F)F)c1 (stereo not shown) [Bicalutamide]
viability at 0.1 µM (expanded OPCs; [2]): 93.3%
viability at 1 µM (expanded OPCs; [3]): 96%
viability at 10 µM (expanded OPCs; [4]): 119%
activation at 2 µM [1, 6]: -3%
activation at 10 µM [1, 12]: 6.9%

OC(CCN1CCCC1)(c1ccccc1)C1CCCCC1 (stereo not shown) [Procyclidine]
viability at 0.1 µM (expanded OPCs; [7]): 86.1%
viability at 1 µM (expanded OPCs; [8]): 70.8%
viability at 10 µM (expanded OPCs; [9]): 56.9%
activation at 0.4 µM [1, 10]: 12%
activation at 2 µM [1, 11]: 11.1%

Clc1ccccc1C(c1ccccc1)(c1ccccc1)n1ccnc1 [Clotrimazole]
viability at 0.1 µM (expanded OPCs; [2]): 82.3%
viability at 1 µM (expanded OPCs; [3]): 125%
viability at 10 µM (expanded OPCs; [4]): 54.9%
activation at 0.4 µM [1, 5]: 43.9%
activation at 2 µM [1, 6]: 171%

CCCCN1CCCC1CNC(=O)c1cc(C#N)c2ccccc2c1OC (stereo not shown) [Nafadotride]
viability at 0.1 µM (expanded OPCs; [7]): 118%
viability at 1 µM (expanded OPCs; [8]): 131%
viability at 10 µM (expanded OPCs; [9]): 49.6%
activation at 0.4 µM [1, 10]: 7.6%
activation at 2 µM [1, 11]: 26.6%

CN1CCN(C(=O)O[C@H]2c3nccnc3C(=O)N2c2ccc(Cl)cn2)CC1 [Eszopiclone]
0.1 µM (% DMSO) (expanded OPCs): 103.0 % DMSO
1 µM (% DMSO) (expanded OPCs): 99.5 % DMSO
10 µM (% DMSO) (expanded OPCs): 106.9 % DMSO
activation at 2 µM [1, 15]: -2.9%
activation at 10 µM ([1]; Rattus norvegicus, test compound at 10 uM, MBP expression relative to quetiapine, NCC library screen, sheet "All OLga data", read-out: 10 uM (% Quet)): -10.2%

Cc1onc(-c2ccccc2)c1-c1ccc(S(N)(=O)=O)cc1 [Valdecoxib]
viability at 0.1 µM (expanded OPCs; [2]): 109%
viability at 1 µM (expanded OPCs; [3]): 104%
viability at 10 µM (expanded OPCs; [4]): 105%
activation at 2 µM [1, 6]: 8.7%
activation at 10 µM [1, 12]: -33.1%

CCC(=O)O[C@@H]1CC(=O)O[C@H](C)C/C=C/C=C/[C@H](O)[C@H](C)C[C@H](CC=O)[C@H](O[C@@H]2O[C@H](C)[C@@H](O[C@H]3C[C@@](C)(O)[C@@H](OC(=O)CC)[C@H](C)O3)[C@H](N(C)C)[C@H]2O)[C@H]1OC [Midecamycin]
viability at 0.1 µM (expanded OPCs; [2]): 92.7%
viability at 1 µM (expanded OPCs; [3]): 95.7%
viability at 10 µM (expanded OPCs; [4]): 91.2%
activation at 2 µM [1, 6]: -0.9%
activation at 10 µM [1, 12]: -11.3%

Cc1[nH]c(=O)c(C#N)cc1-c1ccncc1 [Milrinone]
viability at 0.1 µM (expanded OPCs; [7]): 87.2%
viability at 1 µM (expanded OPCs; [8]): 85.8%
viability at 10 µM (expanded OPCs; [9]): 79.6%
activation at 2 µM [1, 6]: 5.1%
activation at 10 µM [1, 12]: -2.1%

COc1cc2nc(N3CCN(C(=O)C4COc5ccccc5O4)CC3)nc(N)c2cc1OC (stereo not shown) [Doxazosin]
0.1 µM (% DMSO) (expanded OPCs): 140.5 % DMSO
1 µM (% DMSO) (expanded OPCs): 157.6 % DMSO
10 µM (% DMSO) (expanded OPCs): 18.9 % DMSO
activation at 0.4 µM [1, 13]: 2%
activation at 2 µM [1, 15]: -27.2%

CN1C(C(=O)Nc2ccccn2)=C(O)c2ccccc2S1(=O)=O [Piroxicam]
viability at 0.1 µM (expanded OPCs; [7]): 91.3%
viability at 1 µM (expanded OPCs; [8]): 88.3%
viability at 10 µM (expanded OPCs; [9]): 87.1%
activation at 2 µM [1, 11]: 12.1%
activation at 10 µM [1, 14]: -2.1%

COC(=O)CCc1ccc(OCC(O)CNC(C)C)cc1 (stereo not shown) [Esmolol, reference compound]
viability at 0.1 µM (expanded OPCs; [2]): 93.8%
viability at 1 µM (expanded OPCs; [3]): 98.2%
viability at 10 µM (expanded OPCs; [4]): 113%
activation at 2 µM [1, 6]: 39.8%
activation at 10 µM [1, 12]: 29.6%
EC50 ([1]; Rattus norvegicus): 240 µM
hit in OL differentiation assay, MRF-TMC [1]: ●
